Results: patent US5254801A, “Heterologous dominant conditional lethal gene which is a phosphonate monoester hydrolase and use thereof in plants” (Monsanto Company, priority 1990, dated 1993)

Columns and labels:
[1] = tested on: E. coli JM101/pMON9428 (pehA:1); experiment: Conditional lethal phenotype test on MOPS minimal plates; type: cell-based
Text: (§1) The NcoI-BamHI pehA:1 fragment was removed from pMON9420 by restricting the DNA with both enzymes, separating the fragments on an agarose gel, and purifying the pehA fragment from the gel using the GeneClean kit. In a similar manner the BamHI-ClaI pehA:1 fragment was obtained from pMON9421 and both were ligated into an E. coli expression vector to reconstruct the pehA:1 gene behind the RecA promoter with the […] gene 10L leader. The resulting vector, pMON9428 (FIG. 3), was transformed into E. coli strain JM101 using calcium chloride transformation and transformants selected on LB agar with 100 μg/ml spectinomycin. A single colony was isolated and confirmed by restriction mapping to contain pMON9428. The JM101/pMON9428 was then streaked out on LB agar plates containing 100 μg/ml spectinomycin and […] XPP. As a control, JM101 containing the RecA expression vector without the pehA:1 gene was streaked out on the same plate. The JM101/pMON9428 formed blue colonies while the JM101 with the control vector formed white colonies. […] The JM101/pMON9428 and vector control strain were then plated on MOPS minimal medium containing 0.05 mM HK2 PO4 as the phosphate source and 100 μg/ml spectinomycin. […] To test for a conditional lethal phenotype, both strains were streaked side by side on a MOPS minimal plate with 0.05 mM KPO4, 100 μg/ml spectinomycin and 10 mM glyceryl glyphosate. […] To confirm the lethal phenotype was the result of the degradation of the glyceryl glyphosate and subsequent inhibition of aromatic amino acid biosynthesis by glyphosate, both E. coli strains were plated on MOPS minimal medium with 0.05 mM KPO4, 100 μg/ml spectinomycin, 10 mM glyceryl glyphosate and supplemented with aromatic compounds consisting of L-tyrosine, L-tryptophan, L-phenylalanine, each at 100 μg/ml, 2,3 -dihydroxybenzoicacid and para-aminobenzoic acid, each at 5 μg/ml. […] This confirmed that the conditional lethal phenotype observed in the presence of the glyceryl glyphosate was the result of its conversion to and subsequent inhibition of EPSPS by glyphosate.

[2] = tested on: E. coli JM101/vector control; experiment: as above; type: cell-based
Text: as §1

[3] = tested on: E. coli MM294, JM101, JM101/MPU+, SR200/MPU crude extract; experiment: In vitro radioactive hydrolysis assay in crude extracts; type: biochemical; conditions: E. coli strains
Text: (§2) The enzymatic reaction can be assayed using labelled (3-^14 C-) glyceryl glyphosate as a substrate and following the conversion to (3-^14 C-)glyphosate as a product using a high pressure liquid chromatography system with a radioactive detector. This assay is the most specific for the phosphonate monoester hydrolase enzymes useful for conditional cell lethality. An enzyme assay consists of 40,000 cpm of labelled (3-^14 C-) glyceryl glyphosate (obtained from NEN Biochemicals), the PEH sample in buffer and buffer to 100 μl final volume. The assay buffer is 10 mM Bis-Tris propane, pH 9.0, plus 100 mM KCl. The reaction is run for 1 hour at 30° C. and then stopped by the addition of 100 μl "quench" which is 100 mM sodium acetate, pH 5.5, in ethanol. The denatured protein is then spun down at 10,000 rpm in a microfuge and the supernatant transferred to an HPLC injection vial. A 100 μl aliquot is then injected onto an Synchropac AX100 anion exchange column 4.6×250 mm) pre-equilibrated in 65 mM potassium phosphate buffer, pH 5.5. The radioactive compounds are eluted isocratically for 15 min at 1 ml/min. The radioactivity of the peaks is measured and integrated by a post-column detector. Typically, the substrate elutes at 4.9 min and the product, glyphosate, at 9.7 min providing baseline separation. […] Alternatively, blank reactions can be included to determine the preexisting glyphosate contamination.
(§3) Bacteria which grew in this medium using glyceryl glyphosate as a sole phosphate source had the ability to cleave both the ester and the phosphonate bond to release the free phosphate. For these bacteria to be useful in the present invention, the first step in the mineralization of glyceryl glyphosate needed is the hydrolysis of the phosphonate ester. Each of the three bacteria which utilized glyceryl glyphosate as a phosphate source were then assayed for a phosphonate monoester hydrolase activity using an in vivo (3-^14 C-) glyceryl glyphosate assay. A 150 ml culture of each bacteria was grown in DF minimal medium with 0.2 mM HK2 PO4 as a phosphate source in a 500 ml flask, 30° C., with shaking. The bacteria were pelleted by centrifugation at 5,000×g for 10 min and resuspended at 10 mg fresh weight/ml. An assay mix included 50 μl cells plus 10 μl (3-^14 C-) glyceryl glyphosate (10,000 cpm/μl) and kept at 30° C. with shaking. After a three hour incubation period, the cells were pelleted in a microfuge and the supernatant injected onto an HPLC anion exchange column and glyphosate analyzed as described above. The pellet was washed twice with 1 ml 10 mM HEPES, pH 7.0, and resuspended in 25 μl buffer. The cells were lysed with 25 μl quench and the debris pelleted in a microfuge. The pellet extract was then analyzed for glyphosate product as described above. […]

T10 crude extract = experiment: as above; type: biochemical; conditions: strain T10
Text: as §2, §3

T12 crude extract = experiment: as above; type: biochemical; conditions: strain T12
Text: as §2, §3

LBAA crude extract = experiment: as above; type: biochemical; conditions: strain LBAA
Text: as §2, §3

[4] = tested on: E. coli MM294, JM101, JM101/MPU+, SR200/MPU; experiment: In vivo (3-14C-) glyceryl glyphosate hydrolysis assay in whole cells; type: cell-based; conditions: E. coli strains; three hour incubation, 30° C.

## O=C(O)CNCP(=O)(O)OCC(O)CO (stereo not drawn) [glyceryl glyphosate, glycine, N-([hydroxy (2,3 dihydroxy propoxy)phosphonyl]methyl)]
[1]; 10 mM glyceryl glyphosate plus L-tyrosine, L-tryptophan, L-phenylalanine, 2,3-dihydroxybenzoic acid, para-aminobenzoic acid
  Colony formation with aromatic compound supplement: formed colonies
[1]; 10 mM glyceryl glyphosate, MOPS minimal plate
  Colony formation (lethal phenotype): did not form visible colonies
[2]; 10 mM glyceryl glyphosate plus L-tyrosine, L-tryptophan, L-phenylalanine, 2,3-dihydroxybenzoic acid, para-aminobenzoic acid, vector control strain
  Colony formation with aromatic compound supplement: formed colonies
[2]; 10 mM glyceryl glyphosate, MOPS minimal plate, JM101/vector control
  Toxicity (colony formation): non-toxic
[3]
  Hydrolysis of Glyceryl Glyphosate into Glyphosate in Crude Extracts: No
T10 crude extract
  Hydrolysis of Glyceryl Glyphosate into Glyphosate in Crude Extracts: No
T12 crude extract
  Hydrolysis of Glyceryl Glyphosate into Glyphosate in Crude Extracts: Yes
LBAA crude extract
  Hydrolysis of Glyceryl Glyphosate into Glyphosate in Crude Extracts: Yes
[4]
  In vivo Hydrolysis of Glyceryl Glyphosate into Glyphosate: No
